Laboratory results taken from the supplement of paper PMC10307832.

What was measured:
Experiment in all cases: relative viability (nuclei count vs DMSO), 5 days (fraction); higher = more cells survive
[1] = compound: COc1cc2nc(N3CCCN(C)CC3)nc(NC3CCN(Cc4ccccc4)CC3)c2cc1OC + O=C(CCCCCCC(=O)Nc1ccccc1)NO [Vorinostat] (partner 1 µM)
Summary of the method: (§1)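 Lung cancer cell lines in 1536-well plates were dosed by pin tool the day after seeding, either with one drug alone or with a fixed anchor-drug dose plus five library-drug doses (not always all listed) in √10 steps. After 5 days, cells were fixed and their nuclei stained in one step (final 0.05% Triton X-100, 1% formaldehyde, 1 ug/ml Hoechst), then counted on 4× images. Relative viability is the nuclei count in treated wells divided by that in vehicle wells. Values are medians of duplicate plates.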

[2] = compound: Cc1cc([C@@H](C)Nc2ccccc2C(=O)O)c2nc(N3CCOCC3)cc(=O)n2c1 [AZD6482] + CCNC(=O)c1noc(-c2cc(C(C)C)c(O)cc2O)c1-c1ccc(CN2CCOCC2)cc1 [Luminespib] (partner 0.01 µM)
Summary of the method: as §1

[3] = compound: Cc1cc([C@@H](C)Nc2ccccc2C(=O)O)c2nc(N3CCOCC3)cc(=O)n2c1 [AZD6482] + C[C@]1(O)C[C@@H](c2nc(-c3ccc4ccc(-c5ccccc5)nc4c3)c3c(N)nccn32)C1 [Linsitinib] (partner 1 µM)
Summary of the method: as §1

[4] = compound: Cc1cc([C@@H](C)Nc2ccccc2C(=O)O)c2nc(N3CCOCC3)cc(=O)n2c1 [AZD6482] + O=C(c1cc(Cc2n[nH]c(=O)c3ccccc23)ccc1F)N1CCN(C(=O)C2CC2)CC1 [Olaparib] (partner 8 µM)
Summary of the method: as §1

Cell Line	relative viability ([1]; first compound 0.2 µM)	relative viability ([1]; first compound 0.6325 µM)	relative viability ([1]; first compound 2 µM)	relative viability ([1]; first compound 6.325 µM)	relative viability ([2]; first compound 0.08 µM)	relative viability ([2]; first compound 0.253 µM)	relative viability ([2]; first compound 0.8 µM)	relative viability ([2]; first compound 8 µM)	relative viability ([3]; first compound 0.08 µM)	relative viability ([3]; first compound 0.253 µM)	relative viability ([3]; first compound 0.8 µM)	relative viability ([3]; first compound 2.53 µM)	relative viability ([3]; first compound 8 µM)	relative viability ([4]; first compound 0.08 µM)	relative viability ([4]; first compound 0.253 µM)	relative viability ([4]; first compound 0.8 µM)	relative viability ([4]; first compound 2.53 µM)	relative viability ([4]; first compound 8 µM)	relative viability ([2]; first compound 2.53 µM)
NCI-H2087	0.806	0.618	0.521	0.611	0.183	0.161	0.213	0.16	0.902	0.929	1.09	0.815	0.964	0.578	0.587	0.523	0.345	0.519	–
NCI-H1437	0.871	0.778	0.982	0.734	1.16	1.2	1.14	1.15	0.943	1.08	0.998	0.574	0.657	0.644	0.672	0.651	0.599	0.557	0.969
NCI-H650	0.573	0.391	0.475	0.321	0.657	–	0.898	0.509	0.856	–	0.753	0.362	0.491	0.315	0.364	0.337	0.31	0.268	0.647
COR-L23	0.536	0.406	0.561	0.286	0.635	0.688	0.768	0.636	0.595	0.933	1.03	0.565	0.686	0.272	0.414	0.364	0.195	0.34	0.519
COR-L 105	0.805	1.04	0.728	0.595	0.75	0.867	1.04	0.663	0.635	0.779	0.783	0.553	0.603	0.607	0.851	0.726	0.549	0.687	0.46
LK-2	0.302	0.194	0.364	0.209	0.231	0.187	0.229	0.167	0.587	0.521	0.791	0.513	0.421	0.916	0.731	0.581	0.73	0.432	0.177
201T	0.968	0.983	0.952	0.939	0.995	0.982	1.01	1.02	1.03	0.969	1.01	0.808	0.867	0.839	0.8	0.872	0.727	0.848	0.847
HCC-44	1.11	1.12	1.17	1.12	0.941	1.12	0.98	1.1	0.413	0.527	0.429	0.539	0.362	1	1.11	1.1	1.15	1.08	0.824
NCI-H596	0.623	0.717	0.591	0.57	0.92	0.815	0.848	0.801	0.789	0.979	1.01	0.957	1.02	0.596	0.68	1.01	0.737	0.598	0.812
H3255	0.77	0.796	0.858	0.772	0.986	0.761	0.806	0.799	0.919	0.907	0.945	0.602	0.729	0.559	0.567	0.596	0.492	0.55	0.529
NCI-H647	0.588	0.669	0.614	0.24	0.167	0.121	0.147	0.146	0.877	–	0.739	0.7	0.659	0.544	0.482	0.554	0.373	0.419	0.193
NCI-H2023	0.565	0.63	0.509	0.0993	0.603	0.574	0.795	0.324	0.373	0.337	0.322	0.199	0.234	0.496	0.457	0.43	0.353	0.379	0.518
NCI-H23	0.571	0.597	0.576	0.471	0.235	–	0.249	0.201	0.532	0.477	0.533	0.338	0.57	0.26	0.371	0.411	0.266	0.247	0.207
NCI-H1944	0.58	0.597	0.512	0.517	0.775	0.621	0.858	0.589	0.929	0.834	0.922	0.688	0.622	0.399	0.443	0.428	0.337	0.388	0.546
NCI-H1793	0.692	1.06	0.871	0.638	0.151	0.164	0.165	0.167	0.325	0.503	0.615	–	0.46	0.559	0.413	0.502	0.306	0.406	0.134
NCI-H520	0.77	0.77	0.586	0.209	0.208	0.281	0.199	0.211	0.773	0.623	0.59	–	0.412	0.295	0.266	0.262	0.162	0.185	0.206
NCI-H460	0.834	0.72	0.659	0.603	0.0355	0.0327	0.0426	0.0378	0.717	0.703	0.783	0.306	0.206	0.335	0.394	0.435	0.216	0.327	0.0315

Cell Line	relative viability ([1]; first compound 0.2 µM)	relative viability ([1]; first compound 0.6325 µM)	relative viability ([1]; first compound 2 µM)	relative viability ([1]; first compound 6.325 µM)	relative viability ([2]; first compound 0.08 µM)	relative viability ([2]; first compound 0.253 µM)	relative viability ([2]; first compound 0.8 µM)	relative viability ([2]; first compound 8 µM)	relative viability ([3]; first compound 0.08 µM)	relative viability ([3]; first compound 0.253 µM)	relative viability ([3]; first compound 0.8 µM)	relative viability ([3]; first compound 2.53 µM)	relative viability ([3]; first compound 8 µM)	relative viability ([4]; first compound 0.08 µM)	relative viability ([4]; first compound 0.253 µM)	relative viability ([4]; first compound 0.8 µM)	relative viability ([4]; first compound 2.53 µM)	relative viability ([4]; first compound 8 µM)	relative viability ([2]; first compound 2.53 µM)
EKVX	0.703	0.721	0.541	0.722	0.778	0.748	0.74	0.557	0.716	0.6	0.646	0.362	0.544	0.671	0.773	0.855	0.469	0.595	0.625
NCI-H358	0.746	0.663	0.754	0.462	0.422	0.485	0.338	0.199	0.545	0.795	0.679	0.293	0.528	0.535	0.554	0.624	0.282	0.52	0.173
EPLC-272H	0.423	0.4	0.38	0.335	0.347	0.164	0.21	0.256	0.999	–	0.898	0.667	0.537	0.567	0.681	0.687	0.463	0.294	0.179
NCI-H1395	0.617	1.24	0.896	0.491	0.541	0.601	0.514	0.482	0.879	0.639	0.661	0.436	0.732	0.406	0.429	0.501	0.388	0.32	0.376
NCI-H2126	0.8	0.802	0.688	0.69	0.933	0.836	0.841	0.68	0.551	0.591	0.518	0.485	0.548	0.877	0.904	0.867	0.615	0.57	0.373
LXF-289	0.722	0.783	0.796	0.654	0.688	0.655	0.724	0.379	0.993	1	0.971	0.806	0.781	1.02	1.05	1.11	0.986	0.918	0.409
NCI-H2009	0.803	0.762	0.767	0.569	1.04	1.11	1.08	0.963	0.911	1.18	1.16	0.68	0.795	0.597	0.683	0.703	0.452	0.619	0.771
NCI-H2405	1.01	0.989	1.02	0.976	0.367	–	0.612	0.385	0.399	–	0.673	0.427	0.629	0.599	0.861	0.929	0.541	0.677	0.261
NCI-H1755	0.777	0.67	0.759	0.573	0.24	0.488	0.411	0.218	0.87	0.864	0.75	0.497	0.467	0.839	0.755	0.769	0.583	0.601	0.322
LOU-NH91	0.942	1.06	0.845	0.827	0.326	0.293	0.343	0.335	0.782	0.913	0.842	0.598	0.665	0.851	0.917	0.898	0.595	0.755	0.27
NCI-H3122	1.04	1.04	0.921	0.937	0.094	0.0817	0.108	0.0719	0.828	0.993	1.02	0.85	0.816	0.608	0.729	0.657	0.585	0.616	0.0814
HCC-827	0.899	0.786	0.784	0.826	0.601	0.478	0.293	0.196	0.939	0.944	0.926	0.861	0.775	0.653	0.594	0.515	0.432	0.996	0.27
SK-LU-1	0.832	0.747	0.844	0.641	–	0.189	0.203	0.168	–	0.905	1.1	0.886	0.912	–	0.452	0.474	0.405	0.359	0.145
NCI-H1975	0.397	0.677	0.797	0.654	0.171	0.272	0.17	0.224	0.748	0.938	0.874	0.739	0.592	0.661	0.832	0.964	0.648	0.624	0.162
NCI-H1651	0.56	0.617	0.561	0.548	0.779	0.805	0.773	0.753	0.674	0.663	0.733	0.63	0.591	0.174	0.198	0.197	0.201	0.187	0.812
NCI-H441	0.77	0.647	0.927	0.862	0.389	0.375	0.3	0.262	0.459	0.499	0.554	0.323	0.531	0.604	0.525	0.541	–	0.449	–
LCLC-103H	0.776	0.754	0.844	0.656	0.741	0.751	0.804	0.64	0.869	0.73	0.72	0.605	0.572	0.677	0.745	0.648	0.543	0.569	0.602
